Test results: article PMC7578299, “The antiviral effects of baloxavir marboxil against influenza A virus infection in ferrets” (Influenza and Other Respiratory Viruses, 2020)

Legend:
[1] = test system: influenza A/Kadoma/3/2006 strain; details: A/Kadoma/3/2006, yield reduction assay, cited from earlier work
[2] = Simulated plasma concentration of BXA (non-parametric superposition, Phoenix WinNonlin); design: species or system ferret; details: for terminal elimination half-life extrapolated from mean plasma concentrations between 6 and 24 hours: four ferrets; for Ratio of BXA concentration to EC90: EC90 0.42 ng/mL; for Ratio of BXA concentration to Target concentration: target 6.85 ng/mL
From the text: Plasma concentrations of BXA after dosing of BXM twice daily were estimated using the non‐parametric superposition function in Phoenix WinNonlin software (https://onlinehelp.certara.com/phoenix/8.2/topics/nonparasuper.htm) based on the mean plasma concentrations of BXA following single‐dose administration of BXM. Dosing type was used as “Variable.” The computation method used for interpolation and extrapolation of untransformed data was selected as logarithm (Log).

[3] = two doses BXM 10 mg/kg, 24 hours after first dosing
[4] = two doses BXM 10 mg/kg, 48 hours after first dosing
[5] = two doses BXM 30 mg/kg, 24 hours after first dosing
[6] = two doses BXM 30 mg/kg, 48 hours after first dosing

For O=C1c2c(O)c(=O)ccn2N([C@@H]2c3ccccc3SCc3c2ccc(F)c3F)[C@@H]2COCCN12 [BXA, baloxavir acid], the “90% effective concentration (EC90)” value [1] is given as 0.42 ng/mL, the EC90 ([1]; read-out: 90% effective concentration (EC90)) is given as 0.88 nM and the “terminal elimination half-life extrapolated from mean plasma concentrations between 6 and 24 hours” value ([2]; BXM 10 mg/kg) is given as 6.57 h. The “terminal elimination half-life extrapolated from mean plasma concentrations between 6 and 24 hours” value ([2]; BXM 30 mg/kg) was 4.08 h, the Simulated plasma concentration ([2]; BXM single dose 10 mg/kg, 2.5 h) was 48.5 ng/mL and the Simulated plasma concentration ([2]; BXM single dose 10 mg/kg, 3 h) was 42.6 ng/mL. It also gave a Simulated plasma concentration ([2]; BXM single dose 10 mg/kg, 3.5 h) of 37.5 ng/mL, a Simulated plasma concentration ([2]; BXM single dose 10 mg/kg, 4 h) of 33.0 ng/mL and a Simulated plasma concentration ([2]; BXM single dose 10 mg/kg, 4.5 h) of 29.1 ng/mL. The Simulated plasma concentration ([2]; BXM single dose 10 mg/kg, 5 h) was 25.7 ng/mL, the Simulated plasma concentration ([2]; BXM single dose 10 mg/kg, 5.5 h) was 22.7 ng/mL and the Simulated plasma concentration ([2]; BXM single dose 10 mg/kg, 6 h) was 20.0 ng/mL. The Simulated plasma concentration ([2]; BXM single dose 10 mg/kg, 6.5 h) was 19.1 ng/mL, the Simulated plasma concentration ([2]; BXM single dose 10 mg/kg, 7 h) was 18.3 ng/mL and the Simulated plasma concentration ([2]; BXM single dose 10 mg/kg, 7.5 h) was 17.5 ng/mL. The Simulated plasma concentration ([2]; BXM single dose 10 mg/kg, 8 h) was 16.7 ng/mL, the Simulated plasma concentration ([2]; BXM single dose 10 mg/kg, 8.5 h) was 15.8 ng/mL and the Simulated plasma concentration ([2]; BXM single dose 10 mg/kg, 9 h) was 15.0 ng/mL. For the same compound, the Simulated plasma concentration ([2]; BXM single dose 10 mg/kg, 9.5 h) was 14.2 ng/mL, the Simulated plasma concentration ([2]; BXM single dose 10 mg/kg, 10 h) was 13.5 ng/mL and the Simulated plasma concentration ([2]; BXM single dose 10 mg/kg, 10.5 h) was 12.8 ng/mL. For the same compound, the Simulated plasma concentration ([2]; BXM single dose 10 mg/kg, 11 h) was 12.1 ng/mL, the Simulated plasma concentration ([2]; BXM single dose 10 mg/kg, 11.5 h) was 11.5 ng/mL and the Simulated plasma concentration ([2]; BXM single dose 10 mg/kg, 12 h) was 10.9 ng/mL. The Simulated plasma concentration ([2]; BXM single dose 10 mg/kg, 12.5 h) was 10.3 ng/mL, the Simulated plasma concentration ([2]; BXM single dose 10 mg/kg, 13 h) was 9.80 ng/mL and the Simulated plasma concentration ([2]; BXM single dose 10 mg/kg, 13.5 h) was 9.29 ng/mL. For the same compound, the Simulated plasma concentration ([2]; BXM single dose 10 mg/kg, 47.5 h) was 0.254 ng/mL, the Simulated plasma concentration ([2]; BXM single dose 10 mg/kg, 48 h) was 0.241 ng/mL and the Simulated plasma concentration ([2]; BXM single dose 30 mg/kg, 2.5 h) was 316 ng/mL. For the same compound, the Simulated plasma concentration ([2]; BXM single dose 30 mg/kg, 3 h) was 292 ng/mL, the Simulated plasma concentration ([2]; BXM single dose 30 mg/kg, 3.5 h) was 269 ng/mL and the Simulated plasma concentration ([2]; BXM single dose 30 mg/kg, 4 h) was 248 ng/mL. For the same compound, the Simulated plasma concentration ([2]; BXM single dose 30 mg/kg, 4.5 h) was 235.6 ng/mL, the Simulated plasma concentration ([2]; BXM single dose 30 mg/kg, 5 h) was 223.8 ng/mL and the Simulated plasma concentration ([2]; BXM single dose 30 mg/kg, 5.5 h) was 212.6 ng/mL. It also gave a Simulated plasma concentration ([2]; BXM single dose 30 mg/kg, 6 h) of 202 ng/mL, a Simulated plasma concentration ([2]; BXM single dose 30 mg/kg, 6.5 h) of 190.3 ng/mL and a Simulated plasma concentration ([2]; BXM single dose 30 mg/kg, 7 h) of 179.2 ng/mL. For the same compound, the Simulated plasma concentration ([2]; BXM single dose 30 mg/kg, 7.5 h) was 168.8 ng/mL, the Simulated plasma concentration ([2]; BXM single dose 30 mg/kg, 8 h) was 159 ng/mL and the Simulated plasma concentration ([2]; BXM single dose 30 mg/kg, 8.5 h) was 146 ng/mL. The Simulated plasma concentration ([2]; BXM single dose 30 mg/kg, 9 h) was 134 ng/mL, the Simulated plasma concentration ([2]; BXM single dose 30 mg/kg, 9.5 h) was 123 ng/mL and the Simulated plasma concentration ([2]; BXM single dose 30 mg/kg, 10 h) was 112 ng/mL. It also gave a Simulated plasma concentration ([2]; BXM single dose 30 mg/kg, 10.5 h) of 103 ng/mL, a Simulated plasma concentration ([2]; BXM single dose 30 mg/kg, 11 h) of 94.5 ng/mL and a Simulated plasma concentration ([2]; BXM single dose 30 mg/kg, 11.5 h) of 86.6 ng/mL. The Simulated plasma concentration ([2]; BXM single dose 30 mg/kg, 12 h) was 79.4 ng/mL, the Simulated plasma concentration ([2]; BXM single dose 30 mg/kg, 12.5 h) was 72.8 ng/mL and the Simulated plasma concentration ([2]; BXM single dose 30 mg/kg, 13 h) was 66.8 ng/mL. For the same compound, the Simulated plasma concentration ([2]; BXM single dose 30 mg/kg, 13.5 h) was 61.2 ng/mL, the Simulated plasma concentration ([2]; BXM single dose 30 mg/kg, 47.5 h) was 0.184 ng/mL and the Simulated plasma concentration ([2]; BXM single dose 30 mg/kg, 48 h) was 0.169 ng/mL. The Simulated plasma concentration ([2]; BXM two doses 10 mg/kg (0 and 12 h), 2.5 h) was 48.5 ng/mL, the Simulated plasma concentration ([2]; BXM two doses 10 mg/kg (0 and 12 h), 3 h) was 42.6 ng/mL and the Simulated plasma concentration ([2]; BXM two doses 10 mg/kg (0 and 12 h), 3.5 h) was 37.5 ng/mL. For the same compound, the Simulated plasma concentration ([2]; BXM two doses 10 mg/kg (0 and 12 h), 4 h) was 33.0 ng/mL, the Simulated plasma concentration ([2]; BXM two doses 10 mg/kg (0 and 12 h), 4.5 h) was 29.1 ng/mL and the Simulated plasma concentration ([2]; BXM two doses 10 mg/kg (0 and 12 h), 5 h) was 25.7 ng/mL. The Simulated plasma concentration ([2]; BXM two doses 10 mg/kg (0 and 12 h), 5.5 h) was 22.7 ng/mL, the Simulated plasma concentration ([2]; BXM two doses 10 mg/kg (0 and 12 h), 6 h) was 20.0 ng/mL and the Simulated plasma concentration ([2]; BXM two doses 10 mg/kg (0 and 12 h), 6.5 h) was 19.1 ng/mL. The Simulated plasma concentration ([2]; BXM two doses 10 mg/kg (0 and 12 h), 7 h) was 18.3 ng/mL, the Simulated plasma concentration ([2]; BXM two doses 10 mg/kg (0 and 12 h), 7.5 h) was 17.5 ng/mL and the Simulated plasma concentration ([2]; BXM two doses 10 mg/kg (0 and 12 h), 8 h) was 16.7 ng/mL. It also gave a Simulated plasma concentration ([2]; BXM two doses 10 mg/kg (0 and 12 h), 8.5 h) of 15.8 ng/mL, a Simulated plasma concentration ([2]; BXM two doses 10 mg/kg (0 and 12 h), 9 h) of 15.0 ng/mL and a Simulated plasma concentration ([2]; BXM two doses 10 mg/kg (0 and 12 h), 9.5 h) of 14.2 ng/mL. The Simulated plasma concentration ([2]; BXM two doses 10 mg/kg (0 and 12 h), 10 h) was 13.5 ng/mL, the Simulated plasma concentration ([2]; BXM two doses 10 mg/kg (0 and 12 h), 10.5 h) was 12.8 ng/mL and the Simulated plasma concentration ([2]; BXM two doses 10 mg/kg (0 and 12 h), 11 h) was 12.1 ng/mL. The Simulated plasma concentration ([2]; BXM two doses 10 mg/kg (0 and 12 h), 11.5 h) was 11.5 ng/mL, the Simulated plasma concentration ([2]; BXM two doses 10 mg/kg (0 and 12 h), 12 h (dosing)) was 10.9 ng/mL and the Simulated plasma concentration ([2]; BXM two doses 10 mg/kg (0 and 12 h), 12.5 h) was 43.5 ng/mL. It also gave a Simulated plasma concentration ([2]; BXM two doses 10 mg/kg (0 and 12 h), 13 h) of 65.9 ng/mL, a Simulated plasma concentration ([2]; BXM two doses 10 mg/kg (0 and 12 h), 13.5 h) of 64.9 ng/mL and a Simulated plasma concentration ([2]; BXM two doses 10 mg/kg (0 and 12 h), 24 h) of 13.9 ng/mL. It also gave a Simulated plasma concentration ([2]; BXM two doses 10 mg/kg (0 and 12 h), 47.5 h) of 1.16 ng/mL, a Simulated plasma concentration ([2]; BXM two doses 10 mg/kg (0 and 12 h), 48 h) of 1.10 ng/mL and a Simulated plasma concentration ([2]; BXM two doses 30 mg/kg (0 and 12 h), 2.5 h) of 316 ng/mL. For the same compound, the Simulated plasma concentration ([2]; BXM two doses 30 mg/kg (0 and 12 h), 3 h) was 292 ng/mL, the Simulated plasma concentration ([2]; BXM two doses 30 mg/kg (0 and 12 h), 3.5 h) was 269 ng/mL and the Simulated plasma concentration ([2]; BXM two doses 30 mg/kg (0 and 12 h), 4 h) was 248 ng/mL. For the same compound, the Simulated plasma concentration ([2]; BXM two doses 30 mg/kg (0 and 12 h), 4.5 h) was 236 ng/mL, the Simulated plasma concentration ([2]; BXM two doses 30 mg/kg (0 and 12 h), 5 h) was 224 ng/mL and the Simulated plasma concentration ([2]; BXM two doses 30 mg/kg (0 and 12 h), 5.5 h) was 213 ng/mL. It also gave a Simulated plasma concentration ([2]; BXM two doses 30 mg/kg (0 and 12 h), 6 h) of 202 ng/mL, a Simulated plasma concentration ([2]; BXM two doses 30 mg/kg (0 and 12 h), 6.5 h) of 190 ng/mL and a Simulated plasma concentration ([2]; BXM two doses 30 mg/kg (0 and 12 h), 7 h) of 179 ng/mL. For the same compound, the Simulated plasma concentration ([2]; BXM two doses 30 mg/kg (0 and 12 h), 7.5 h) was 169 ng/mL, the Simulated plasma concentration ([2]; BXM two doses 30 mg/kg (0 and 12 h), 8 h) was 159 ng/mL and the Simulated plasma concentration ([2]; BXM two doses 30 mg/kg (0 and 12 h), 8.5 h) was 146 ng/mL. For the same compound, the Simulated plasma concentration ([2]; BXM two doses 30 mg/kg (0 and 12 h), 9 h) was 134 ng/mL, the Simulated plasma concentration ([2]; BXM two doses 30 mg/kg (0 and 12 h), 9.5 h) was 123 ng/mL and the Simulated plasma concentration ([2]; BXM two doses 30 mg/kg (0 and 12 h), 10 h) was 112 ng/mL. The Simulated plasma concentration ([2]; BXM two doses 30 mg/kg (0 and 12 h), 10.5 h) was 103 ng/mL, the Simulated plasma concentration ([2]; BXM two doses 30 mg/kg (0 and 12 h), 11 h) was 94.5 ng/mL and the Simulated plasma concentration ([2]; BXM two doses 30 mg/kg (0 and 12 h), 11.5 h) was 86.6 ng/mL. For the same compound, the Simulated plasma concentration ([2]; BXM two doses 30 mg/kg (0 and 12 h), 12 h (dosing)) was 79.4 ng/mL, the Simulated plasma concentration ([2]; BXM two doses 30 mg/kg (0 and 12 h), 12.5 h) was 208 ng/mL and the Simulated plasma concentration ([2]; BXM two doses 30 mg/kg (0 and 12 h), 13 h) was 405 ng/mL. For the same compound, the Simulated plasma concentration ([2]; BXM two doses 30 mg/kg (0 and 12 h), 47.5 h) was 1.60 ng/mL, the Simulated plasma concentration ([2]; BXM two doses 30 mg/kg (0 and 12 h), 48 h) was 1.47 ng/mL and the “Ratio of BXA concentration to EC90” value [2, 3] was “× 33.2”. For the same compound, the “Ratio of BXA concentration to Target concentration” value (“Ratio … to Target concentration” for short) [2, 3] was “× 2.0”, the “Ratio of BXA concentration to EC90” value [2, 4] was “× 2.6” and the “Ratio … to Target concentration” value [2, 4] was “× 0.16”. The “Ratio of BXA concentration to EC90” value [2, 5] was “× 213”, the “Ratio … to Target concentration” value [2, 5] was “× 13.0” and the “Ratio of BXA concentration to EC90” value [2, 6] was “× 3.5”. For the same compound, the “Ratio … to Target concentration” value [2, 6] was “× 0.21”.
